Measurements as given in PubChem BioAssay (NCI).
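48-hour exposure; five concentrations; linearly interpolated endpoints. GI50 = concentration required for 50% inhibition of growth. The concentration for full growth arrest is given as TGI.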

Key:
Assay in all cases: NCI-60 cell line screen, 48 h
LOX IMVI melanoma = system: LOX IMVI melanoma
UACC-62 melanoma = system: UACC-62 melanoma
SNB-19 CNS = system: SNB-19 CNS
DU-145 prostate = system: DU-145 prostate
OVCAR-4 ovarian = system: OVCAR-4 ovarian
SK-MEL-5 melanoma = system: SK-MEL-5 melanoma
CCRF-CEM leukemia = system: CCRF-CEM leukemia
RPMI-8226 leukemia = system: RPMI-8226 leukemia
HCT-116 colon = system: HCT-116 colon
OVCAR-5 ovarian = system: OVCAR-5 ovarian
HS 578T breast = system: HS 578T breast
HOP-92 NSCLC = system: HOP-92 NSCLC
M14 melanoma = system: M14 melanoma
A549 NSCLC = system: A549 NSCLC
SK-OV-3 ovarian = system: SK-OV-3 ovarian
IGROV1 ovarian = system: IGROV1 ovarian
A498 renal = system: A498 renal
K-562 leukemia = system: K-562 leukemia
SF-268 CNS = system: SF-268 CNS
NCI-H226 lung = system: NCI-H226 lung
U251 CNS = system: U251 CNS
SK-MEL-28 melanoma = system: SK-MEL-28 melanoma
MALME-3M melanoma = system: MALME-3M melanoma
COLO 205 colon = system: COLO 205 colon
HCC-2998 colon = system: HCC-2998 colon
HL-60(TB) leukemia = system: HL-60(TB) leukemia
MOLT-4 leukemia = system: MOLT-4 leukemia
NCI-H522 lung = system: NCI-H522 lung
TK-10 renal = system: TK-10 renal
MDA-MB-231 breast = system: MDA-MB-231 breast
SK-MEL-2 melanoma = system: SK-MEL-2 melanoma
MDA-MB-435 = system: MDA-MB-435
SN12C renal = system: SN12C renal
786-0 renal = system: 786-0 renal
UACC-257 melanoma = system: UACC-257 melanoma
SR leukemia = system: SR leukemia
SF-539 CNS = system: SF-539 CNS
HT29 colon = system: HT29 colon
HCT-15 colon = system: HCT-15 colon
CAKI-1 renal = system: CAKI-1 renal
MDA-MB-468 breast = system: MDA-MB-468 breast
SNB-75 CNS = system: SNB-75 CNS
PC-3 prostate = system: PC-3 prostate
ACHN renal = system: ACHN renal
UO-31 renal = system: UO-31 renal

Compound: Cn1cc(-c2cc3nc(-c4c[nH]c5ccc(Br)cc45)cc(N)n3n2)c2ccccc21
- GI50 (LOX IMVI melanoma): 1680 nM
- TGI (LOX IMVI melanoma): 3040 nM
- GI50 (UACC-62 melanoma): 1540 nM
- TGI (UACC-62 melanoma): 2920 nM
- GI50 (SNB-19 CNS): 1670 nM
- TGI (SNB-19 CNS): 3090 nM
- GI50 (DU-145 prostate): 1920 nM
- TGI (DU-145 prostate): 3750 nM
- GI50 (OVCAR-4 ovarian): 1710 nM
- TGI (OVCAR-4 ovarian): 3490 nM
- GI50 (SK-MEL-5 melanoma): 1710 nM
- TGI (SK-MEL-5 melanoma): 3150 nM
- GI50 (CCRF-CEM leukemia): 2670 nM
- TGI (CCRF-CEM leukemia): 9340 nM
- GI50 (RPMI-8226 leukemia): 2730 nM
- TGI (RPMI-8226 leukemia): 7930 nM
- GI50 (HCT-116 colon): 3000 nM
- TGI (HCT-116 colon): > 100000 nM
- GI50 (OVCAR-5 ovarian): 1620 nM
- TGI (OVCAR-5 ovarian): 3260 nM
- GI50 (HS 578T breast): 1980 nM
- TGI (HS 578T breast): 4870 nM
- GI50 (HOP-92 NSCLC): 1510 nM
- TGI (HOP-92 NSCLC): 3080 nM
- GI50 (M14 melanoma): 2290 nM
- TGI (M14 melanoma): 5780 nM
- GI50 (A549 NSCLC): 1530 nM
- TGI (A549 NSCLC): 3450 nM
- GI50 (SK-OV-3 ovarian): 1980 nM
- TGI (SK-OV-3 ovarian): 4030 nM
- GI50 (IGROV1 ovarian): 1500 nM
- TGI (IGROV1 ovarian): 2980 nM
- GI50 (A498 renal): 1670 nM
- TGI (A498 renal): 3340 nM
- GI50 (K-562 leukemia): 2290 nM
- TGI (K-562 leukemia): 5940 nM
- GI50 (SF-268 CNS): 1890 nM
- TGI (SF-268 CNS): 4430 nM
- GI50 (NCI-H226 lung): 1960 nM
- TGI (NCI-H226 lung): 5070 nM
- GI50 (U251 CNS): 1720 nM
- TGI (U251 CNS): 3270 nM
- GI50 (SK-MEL-28 melanoma): 1780 nM
- TGI (SK-MEL-28 melanoma): 3220 nM
- GI50 (MALME-3M melanoma): 1660 nM
- TGI (MALME-3M melanoma): 3010 nM
- GI50 (COLO 205 colon): 1890 nM
- TGI (COLO 205 colon): 3510 nM
- GI50 (HCC-2998 colon): 1790 nM
- TGI (HCC-2998 colon): 3260 nM
- GI50 (HL-60(TB) leukemia): 1840 nM
- TGI (HL-60(TB) leukemia): 4340 nM
- GI50 (MOLT-4 leukemia): 1670 nM
- TGI (MOLT-4 leukemia): 5150 nM
- GI50 (NCI-H522 lung): 1500 nM
- TGI (NCI-H522 lung): 3080 nM
- GI50 (TK-10 renal): 1430 nM
- TGI (TK-10 renal): 2790 nM
- GI50 (MDA-MB-231 breast): 1770 nM
- TGI (MDA-MB-231 breast): 3170 nM
- GI50 (SK-MEL-2 melanoma): 1740 nM
- TGI (SK-MEL-2 melanoma): 3480 nM
- GI50 (MDA-MB-435): 1710 nM
- TGI (MDA-MB-435): 3090 nM
- GI50 (SN12C renal): 1650 nM
- TGI (SN12C renal): 3050 nM
- GI50 (786-0 renal): 1600 nM
- TGI (786-0 renal): 3270 nM
- GI50 (UACC-257 melanoma): 1720 nM
- TGI (UACC-257 melanoma): 3260 nM
- GI50 (SR leukemia): 1650 nM
- TGI (SR leukemia): 5280 nM
- GI50 (SF-539 CNS): 1660 nM
- TGI (SF-539 CNS): 3070 nM
- GI50 (HT29 colon): 1660 nM
- TGI (HT29 colon): 3080 nM
- GI50 (HCT-15 colon): 1430 nM
- TGI (HCT-15 colon): 2790 nM
- GI50 (CAKI-1 renal): 1500 nM
- TGI (CAKI-1 renal): 3060 nM
- GI50 (MDA-MB-468 breast): 1490 nM
- TGI (MDA-MB-468 breast): 3010 nM
- GI50 (SNB-75 CNS): 1320 nM
- TGI (SNB-75 CNS): 3110 nM
- GI50 (PC-3 prostate): 1640 nM
- TGI (PC-3 prostate): 3240 nM
- GI50 (ACHN renal): 1690 nM
- TGI (ACHN renal): 3130 nM
- GI50 (UO-31 renal): 1430 nM
- TGI (UO-31 renal): 2730 nM

Compound: COC1=CC(c2ccc[nH]2)=N/C1=C\c1[nH]c(C)c(C(=O)OCc2ccccc2)c1C
- GI50 (MDA-MB-468 breast): 58.4 nM
- TGI (MDA-MB-468 breast): 730 nM

Compound: C=C1C(=O)O[C@H]2[C@H]1CC/C(CNC(=O)/C=C/c1ccc(Br)cc1)=C\CC[C@@]1(C)O[C@@H]21
- GI50 (MDA-MB-468 breast): 391 nM
- TGI (MDA-MB-468 breast): 1670 nM

Compound: COc1cc2c(cc1OCCCN1CCN(CCCOc3cc4c(cc3OC)C(=O)N3CCC[C@H]3C=N4)CC1)C=CC(C)(C)O2
- GI50 (MDA-MB-468 breast): 469 nM
- TGI (MDA-MB-468 breast): 2450 nM

Compound: CC(=O)C1=C(O)C=C2Oc3c(C(=O)/C=C/c4cc(C(F)(F)F)cc(C(F)(F)F)c4)c(O)c(C)c(O)c3[C@]2(C)C1=O
- GI50 (MDA-MB-468 breast): 1290 nM
- TGI (MDA-MB-468 breast): 4460 nM

Compound: Cc1c2cnccc2c(C)c2c1c1cc(C3OCCCO3)ccc1n2C
- GI50 (MDA-MB-468 breast): 260 nM
- TGI (MDA-MB-468 breast): 928 nM
